# Entries after “also recorded” stand apart in the source; their conditions may differ. No end group written: not given here. *: point of attachment. Stearoyl = CCCCCCCCCCCCCCCCCC(=O)*
# Columns and labels:
# [1] = system: AMPK; assay: AMPK phosphorylation (pT172 immunoblot) in C2C12 myotubes; assay type: cell-based, mouse
# Protocol: (§1) For signaling studies the cells were prepared the same way except 6-well plates were used. After 6 days incubation in differentiating medium, the cells were washed with serum-free medium. The various treatments were then added in serum free medium containing 0.1% BSA. HBD1 peptides were added and incubated for 8 hours. When utilizing IGF-I, incubation was for 15 minutes after IGF-1 addition. Following incubation the cells were lysed in RIPA buffer and sonicated. The cell lysate was centrifuged and the supernatant analyzed for either Akt or AMPK by SDS PAGE using a 10% gel followed by immunoblotting with the appropriate antibody.
# To examine further the intracellular transduction pathways utilized by the HBD1 peptides, following treatment with HBD1 peptide SEQ ID NO: 73 (C18:0-HLGLEEPKK), cell lysate proteins, were separated by SDS PAGE and immunoblotted with anti-pAMPK T172.
# [2] = system: C2C12 mouse skeletal muscle myotubes; assay: 3H-2-deoxyglucose uptake by fully differentiated C2C12 myotubes; assay type: cell-based
# Protocol: The studies were performed using cultured, fully differentiated C2C12 mouse skeletal muscle myotubes. The cells were prepared by growing C2C12 cells to confluent density in DMEM with 25 mM glucose and 10% fetal bovine serum in 24 well plates. At this time, the medium was changed to differentiation medium (DMEM with 25 mM glucose and 2% horse serum) for 6 days with medium changed every third day. The various treatments were diluted in serum-free medium and, after washing the cells with serum-free medium, were added to the cells and incubated for 2 hours or alternative times, depending on the treatment. At the end of incubation period, the media was removed and 1.0 ml of glucose-free Krebs ringer bicarbonate buffer (pH 7.4), containing the same treatments, was added and incubation continued for 10 minutes. At the end of the 10 min incubation period, ^3H-2-deoxyglucose ([…]) (specific activity=8 Ci/mmole) was added directly to all wells, and the incubation continued for an additional 10 min. The wells were then rinsed three times with ice cold phosphate buffered saline, the cells were extracted with 0.5 N NaOH, and the ^3H-2-deoxyglucose content of the cell lysate quantitated by scintillation counting.
# [3] = system: 3T3-LI adipocytes; assay: [3H]-2-deoxyglucose uptake by fully differentiated 3T3-LI adipocytes; assay type: cell-based, mouse; conditions: 3 μg/ml for 24 hours
# Protocol: 3T3-LI cells are a mouse fibroblast cell line which when cultured under specific conditions, differentiate into adipocytes.
# Differentiation of 3T3-LI cells into adipocytes was achieved using the following protocol. 3T3-L1 cells were seeded in 24-well plates and cultured in 3T3-L1 maintenance medium (DMEM containing 10% fetal bovine serum, 4 mM L-glutamine 1 mM, sodium pyruvate) until the cells were 100% confluent. The cells were then fed with 3T3-L1 maintenance medium and cultured for a further 48 h. To initiate differentiation into adipocytes, the medium was changed to Differentiation medium 1 (DMEM containing 10% fetal bovine serum, 4 mM L-glutamine, 1 mM sodium pyruvate, 0.5 mM IBMX, […]), and cultured for a further 2 days. The medium was then changed to Differentiation medium 2 (DMEM containing 10% fetal bovine serum, 4 mM L-glutamine, 1 mM sodium pyruvate, 1 mg/ml insulin), and cultured for a further 2 days. The medium was then changed to Adipocyte Maintenance medium (DMEM containing 10% fetal bovine serum, 4 mM L-glutamine, 1 mM sodium pyruvate), and cultured for a further 7 days. During this time, the medium was changed every other day. The now fully differentiated adipocytes were utilized for glucose uptake experiments (day 11 from initiation of differentiation). Stock solutions of the HBD1 peptides to be tested were prepared by dilution with 0.9% NaCl solution under sterile conditions in a laminar flow cabinet to a concentration of 1 mg/ml, based on net peptide content. The solutions were homogenized by gentle inversion. Test items were prepared from the stock solutions, and remaining stock solution was aliquoted and stored at −20° C. and used without repeated freeze-thaw cycles.
# Glucose uptake experiments were carried our using the following protocol. Prior to beginning the experiment, 100 ml of Krebs Ringer bicarbonate buffer (KRBB)(25 mM Hepes pH 7.4, 118 mM NaCl, 5 mM NaHCO3, 4.7 mM KCl, 1.2 mM KH2PO4, 1.2 mM MgSO4, 2.5 mM CaCl2, 0.2% BSA—Filtered using a 0.2 μm filter) and 100 ml of Incubation medium (DMEM containing 4 mM L-glutamine, 1 mM sodium pyruvate, 1% penicillin streptomycin, 0.2% BSA—Filtered using a 0.2 μm filter) were pre-warmed to 37° C., and 500 ml of KRBB was chilled on ice. Stock solutions of test compounds were diluted to 3 μg/ml final concentrations in pre-warmed Incubation medium and in pre-warmed KRBB. Insulin (positive control), previously diluted 1:1000 in sterile 0.9% NaCl, was further diluted in 10 ml of both medium and buffer to a final concentration of 1 nM. All traces of the medium were carefully removed from the cells using a fine tip. 1 ml of incubation medium containing study compounds or vehicle was added to the appropriate wells. No insulin was added at this time. […]
# [4] = system: B6.V-Lepob/J mice (ob/ob); assay: Intraperitoneal glucose tolerance test in ob/ob mice after 15 days of twice daily treatment; assay type: in vivo, mouse; conditions: 3 mg/kg s.c. twice daily for 15 days, 45 min after 1 g/kg i.p. glucose, vs vehicle
# Protocol: After being acclimatized 7 days to the laboratory conditions, nine-week-old male B6.V-Lepob/J. mice (Charles River) were subcutaneously administered with vehicle (NaCl 0.9%) or with a peptide as set forth in SEQ ID NO: 73 (C18:0-HLGLEEPKK) at 3 mg/kg (n=5 animals for each group) twice daily for 15 days. On day 15, fasted (overnight) mice were injected intraperitoneally with glucose at 1 g/kg. Plasma blood glucose (expressed as mmol/L) was recorded at 45 minutes post glucose injection.
# [5] = system: Akt; assay: Akt phosphorylation (pS473 immunoblot) in C2C12 myotubes; assay type: cell-based, mouse; conditions: 8 hours incubation (FIG. 6)
# Protocol: as §1
# To examine the intracellular transduction pathways utilized by the HBD1 peptides, following treatment with HBD1 peptide SEQ ID NO: 73 (C18:0-HLGLEEPKK), cell lysate proteins were separated by SDS PAGE and immunoblotted with anti-Akt pS473 antibodies.
# [6] = system: glucose telemetered ob/ob mice; assay: Basal blood glucose and IPGTT in glucose-telemetered ob/ob mice, 28 days of twice daily treatment; assay type: in vivo, mouse; conditions: for glucose intolerance: glucose telemetered ob/ob mice, 1 and 3 mg/kg s.c. twice daily, 27-28 days, vs vehicle
# Protocol: To further assess the effects of HBD1 peptides on glucose and insulin metabolisms, basal blood glucose and glucose response to an intraperitoneal glucose tolerance test (IPGTT) were assessed in glucose-telemetered obese ob/ob mice after twice daily administration of HBD peptides for 28 consecutive days. Implantation of glucose telemetry device (HD-XG, Data Science International) was carried out according to known protocols.
# A dose of HBD peptide fragment of SEQ ID NO: 73 (C18:0-HLGLEEPKK) was administered twice daily at 8-hour±1 hour interval between the two daily administrations. 24 V-Lepob/J (Ob/Ob) male mice (The Jackson Laboratory, Farmington, Conn. USA) were administered subcutaneously with vehicle (NaCl 0.9%) (Control group) or with the peptide at 1 and 3 mg/kg (Test groups) (n=5-8 animals for each group) twice daily for 28 days. The first day of dosing was designated as Day 1. Bolus injection was carried out using a sterile syringe and the needle was introduced subcutaneously, 2 to 4 injection sites were used in rotation. The hair of the animals on the injection area was clipped prior to the first injection and then as necessary during the treatment period. The volume administered was 5 mL/kg/administration. Individual dose volumes were calculated using the latest body weight. On day 27, 16-hour mean blood glucose levels were assessed in normal fed conditions. On day 28, fasted (4 hours) mice were injected intraperitoneally with glucose at 1 g/kg. Plasma blood glucose profile (expressed as mg/dL) was recorded every minute up to 3-hour post glucose injection.
# Intraperitoneal glucose tolerance test (IPGTT)—On the morning of the IGPTT day (day 28), 2-hour fasted animals were treated with vehicle or with the HBD fragment. Glucose solution was administered 2 hours±15 minutes post-dosing (vehicle or a peptide as set forth in SEQ ID NO: 73 (C18:0-HLGLEEPKK). Blood glucose was monitored from 10 minutes before (fasting condition) to 3-hour post-glucose challenge. Food was re-introduced 4 hours post-glucose challenge. The second treatment of the day (the HBD fragment or vehicle) was performed 2 hours after food re-introduction.
# [7] = system: mice; conditions: mice (Xi, 2013); cited from earlier work
# [8] = listed as acylated HBD1 (3-11) fragment
compound,measurement,setting,value
"c1cc(-c2cnn3cc(-c4ccc(OCCN5CCCCC5)cc4)cnc23)ccn1 [Compound C, reference compound]",effect on SEQ ID NO: 73-induced AMPK phosphorylation,[1]; C2C12 myotubes treated with SEQ ID NO: 73 (FIG. 7),completely abolished; also recorded: prevented
same,effect on SEQ ID NO: 73-stimulated glucose uptake,"[2]; C2C12 myotubes, SEQ ID NO: 73 alone or together with insulin (FIG. 8)",completely abolished; also recorded: prevented
C18:0-HLGLEEPKK (Stearoyl-HLGLEEPKK) [SEQ ID NO: 73],glucose uptake by 3T3-LI adipocytes,[3],stimulated increased glucose uptake
same,phosphorylated AMPK,"[1]; C2C12 myotubes, 8 hours incubation (FIG. 7)",dose-dependent increase in phosphorylated AMPK; also recorded: dose-dependent phosphorylation (activation) of the AMPK pathway
same,plasma glucose levels in response to the IP glucose tolerance test,[4],reduced the plasma glucose levels
same,plasma glucose levels in response to the IP glucose tolerance test,[4]; [8],improves glucose intolerance
same,phosphorylated Akt,[5],dose-related increase in phosphorylated Akt; also recorded: dose-dependent phosphorylation (activation) of the Akt pathway
same,effect on fasting glucose and glucose excursion at the high dose,"[6]; 3 mg/kg, after 4 weeks",marked effect
same,glucose excursion following IPGTT,"[6]; after 4 weeks of administration, 3-hour profile after 1 g/kg i.p. glucose",decreased
same,fasting glucose levels,"[6]; after 4 weeks of administration, 10 min prior to IPGTT",decreased fasting glucose levels
same,16-hour average blood glucose levels,"[6]; day 27, normal fed conditions",markedly decrease 16-hour average blood glucose levels
same,glucose intolerance,[6],improved glucose intolerance in a dose-dependent manner
same,glucose intolerance,[6]; [8],improves glucose intolerance
same,"glucose uptake by C2C12 myotubes with insulin, separate experiment",[2]; 1.5 μM together with insulin (FIG. 8),act additively with insulin; also recorded: in an additive manner with insulin
same,"glucose uptake by C2C12 myotubes, separate experiment","[2]; 1.5 μM, alone (FIG. 8)",increased glucose uptake
same,glucose uptake by C2C12 myotubes,"[2]; 0.8, 1.5, 2.3 μM, 1.5 μM for 2, 4, 16 hours, vs vehicle-treated controls (FIGS. 5A-5B)",stimulated increased glucose uptake as compared with vehicle-treated controls in both a dose- and time-dependent manner; also recorded: dose-dependent (FIG. 5A) and time-dependent (FIG. 5B) increases in glucose uptake
same,glucose uptake by C2C12 myotubes in combination with insulin,[2]; in combination with insulin (FIG. 5C),additive increase in glucose uptake
HLGLEEPKK [SEQ ID NO: 10],glucose uptake by 3T3-LI adipocytes,[3],stimulated increased glucose uptake
HHLGLEEPKK [SEQ ID NO: 16],glucose uptake by 3T3-LI adipocytes,[3],stimulated increased glucose uptake
KHHLGLEEPKKLR [SEQ ID NO: 1],glucose uptake by 3T3-LI adipocytes,[3],stimulated increased glucose uptake
same,body weight and fat accumulation,[7],decrease body weight and fat accumulation
same,glucose tolerance,[7],no effect on glucose tolerance

# Source: US20210196789A1, “HEPARIN-BINDING DOMAIN OF IGFBP-2 IN THE TREATMENT OF METABOLIC DISORDERS” (AMOLYT PHARMA, priority 2018, published 2021)
